Experiment [1] relates to HL7702 cells with PPM1B shRNA. Description: Western blot of protein phosphorylation in PPM1B knockdown cells with HN252. As to conditions: HN252 5 μM, 2 h, at 30 h after transfection. On the technique in general: Immunoblotting shows a protein as a band on a membrane.
Description: Cells were lysed in lysis buffer (50 mM Tris‐HCl, 150 mM NaCl, 0.1% SDS, 1% NP‐40, 0.5% deoxycholate, pH 7.4), supplemented with protease inhibitor (Roche) and phosphatase inhibitor cocktails (Roche). Protein samples were separated by SDS‐PAGE and wet‐transferred to PVDF membranes (Millipore). The membrane was blocked for 1 h in 5% BSA in TBST at room temperature and probed with the appropriate primary antibodies and with an HRP‐conjugated secondary antibody.
Experiment [2] deals with topoisomerases. Description: Topoisomerase inhibition in vitro. Particulars: data not shown. The format is biochemical.
The target in experiment [3] is T1, PPM1B (Homo sapiens, UniProt O75688).
T1 construct: inferred from pET-28a vector and Ni-NTA purification; made in house; host or cells: Escherichia coli BL21
T1 sequence (O75688 1-479): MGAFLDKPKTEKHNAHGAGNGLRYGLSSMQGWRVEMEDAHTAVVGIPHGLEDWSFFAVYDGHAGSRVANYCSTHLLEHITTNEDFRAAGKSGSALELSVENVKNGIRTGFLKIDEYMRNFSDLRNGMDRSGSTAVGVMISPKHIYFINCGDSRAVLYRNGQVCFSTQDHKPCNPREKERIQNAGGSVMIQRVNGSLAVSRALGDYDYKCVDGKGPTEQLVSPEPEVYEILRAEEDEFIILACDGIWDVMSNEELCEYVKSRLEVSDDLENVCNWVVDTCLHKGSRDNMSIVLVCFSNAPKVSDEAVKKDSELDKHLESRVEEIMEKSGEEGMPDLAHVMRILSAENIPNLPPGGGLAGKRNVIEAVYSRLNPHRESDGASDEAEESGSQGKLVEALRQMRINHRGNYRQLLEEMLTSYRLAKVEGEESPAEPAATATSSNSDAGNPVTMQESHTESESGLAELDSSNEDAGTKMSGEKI
Description: Fluorescence quenching assay (fluorescence titration). As to conditions: PPM1B 8 μM, 25°C, excitation 280 nm, emission 332 nm; read-out: dissociation constant Kd. The format is binding. The procedure:
The interaction between PPM1B recombinant proteins and compound HN252 was determined by fluorescence titration as previously described. ^20 PPM1B proteins were dialysed against PBS and incubated with different concentrations of HN252. The fluorescent quenching was conducted at 25°C, and fluorescence spectra were recorded by Cytation 5 Multi‐Mode Plate Reader (BioTek) using excitation at 280 nm and emission at 332 nm. The dissociation constant (Kd) of HN252 to PPM1B was calculated as previously described. ^20

The subject of experiment [4] is HL7702 cells. Description: Phospho Explorer Antibody Microarray, HN252 treatment. In kind it is cell-based. Particulars: 2-hours exposure, HN252 5 μM.
Experiment [5] concerns the target T2, SSH2 (Homo sapiens, UniProt Q76I76).
T2 sequence (Q76I76 1-1423): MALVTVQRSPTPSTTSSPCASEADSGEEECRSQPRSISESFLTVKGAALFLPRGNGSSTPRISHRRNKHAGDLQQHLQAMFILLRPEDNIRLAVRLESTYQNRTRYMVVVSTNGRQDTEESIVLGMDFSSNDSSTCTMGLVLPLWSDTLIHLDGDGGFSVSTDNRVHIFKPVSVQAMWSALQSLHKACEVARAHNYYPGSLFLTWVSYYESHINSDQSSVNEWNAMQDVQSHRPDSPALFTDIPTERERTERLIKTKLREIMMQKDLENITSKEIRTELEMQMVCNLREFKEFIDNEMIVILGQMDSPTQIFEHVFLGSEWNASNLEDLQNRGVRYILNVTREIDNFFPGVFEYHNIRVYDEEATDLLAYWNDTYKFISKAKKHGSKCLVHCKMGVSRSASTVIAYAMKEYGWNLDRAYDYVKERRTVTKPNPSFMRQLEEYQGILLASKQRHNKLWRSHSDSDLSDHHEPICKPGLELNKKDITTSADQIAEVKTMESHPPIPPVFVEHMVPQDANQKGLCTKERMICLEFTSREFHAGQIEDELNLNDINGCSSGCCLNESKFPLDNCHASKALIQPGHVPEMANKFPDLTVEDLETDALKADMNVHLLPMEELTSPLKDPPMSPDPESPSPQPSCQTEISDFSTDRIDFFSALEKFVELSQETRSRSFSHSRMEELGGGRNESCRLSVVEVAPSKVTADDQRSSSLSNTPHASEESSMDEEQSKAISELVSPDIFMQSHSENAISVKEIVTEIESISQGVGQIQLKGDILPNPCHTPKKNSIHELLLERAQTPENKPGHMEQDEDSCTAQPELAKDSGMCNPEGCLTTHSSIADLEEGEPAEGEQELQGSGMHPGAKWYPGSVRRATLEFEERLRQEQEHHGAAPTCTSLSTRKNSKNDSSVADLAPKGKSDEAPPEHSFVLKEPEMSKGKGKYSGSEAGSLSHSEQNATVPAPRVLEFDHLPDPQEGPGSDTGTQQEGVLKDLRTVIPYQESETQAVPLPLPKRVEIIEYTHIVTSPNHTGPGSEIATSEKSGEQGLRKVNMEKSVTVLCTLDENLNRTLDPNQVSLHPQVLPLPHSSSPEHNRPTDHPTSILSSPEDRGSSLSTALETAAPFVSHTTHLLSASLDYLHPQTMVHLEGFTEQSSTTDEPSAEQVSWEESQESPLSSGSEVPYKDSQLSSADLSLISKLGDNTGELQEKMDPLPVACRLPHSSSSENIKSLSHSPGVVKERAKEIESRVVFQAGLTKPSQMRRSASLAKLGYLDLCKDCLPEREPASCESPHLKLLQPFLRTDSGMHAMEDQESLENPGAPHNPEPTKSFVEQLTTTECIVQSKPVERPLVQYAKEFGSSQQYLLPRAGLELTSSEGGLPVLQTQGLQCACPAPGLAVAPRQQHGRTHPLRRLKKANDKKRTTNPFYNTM
Description: pNPP hydrolysis phosphatase assay (selectivity panel). The format is biochemical. Particulars: pNPP as substrate.

As for `Nc1cc(-c2ccc(-c3ccc(O)c(O)c3)cc2)ccc1C(=O)O` [HN252], the “effect on phosphorylation of AMPKα, CDK2 and p38” value in experiment [1] is recorded as “mild effect”. Also, the inhibition against topoisomerases result in experiment [2] is recorded as “no inhibition”. For the same compound, in experiment [3], the Kd (commonly a measure of binding affinity in units of concentration) came out at 42.3 ± 6.47 µM. The “number of proteins with enhanced phosphorylation (1.5-fold vs control) also elevated in PPM1B knockdown cells” value in experiment [4] is listed as 30. Also, the IC50 (usually the concentration at which inhibition is half-maximal) in experiment [5] turned out to be 55.1 ± 2.88 µM.

The record behind these values is paper PMC7701510, “Identification of HN252 as a potent inhibitor of protein phosphatase PPM1B” (Journal of Cellular and Molecular Medicine, 2020).
